In data set [1] the test system is human breast carcinoma line H3396. Kind of data set: H3396 tumor cell proliferation (3H-thymidine incorporation). It is filed as cell-based. As for the experimental part: Primary human umbilical vein endothelial cells (HUVEC) were purchased from CLONETICS Inc. (San Diego, CA) and used at passage 2 to 3. Proliferation was measured using ^3H-thymidine incorporation in cells by pulsing twenty-four hours prior to harvesting cell cultures. The human breast carcinoma line H3396 was used to assess activity of compound on tumor cells. Cells (2 × 10^3) were plated on collagen IV coated 96 well plates. Twenty-four hours later, compounds were added at varying concentrations. After 48 hours, ^3H-thymidine was added and cells were allowed to incorporate this label over a twenty-four hour period. Cellular extracts were harvested onto glass filters and incorporated radioactivity was determined by counting in a Beta scintillation counter. The IC50, defined as the drug concentration that causes 50% inhibition of ^3H-thymidine incorporation, was extrapolated from the plotted data. Cell selective inhibition for endothelial cells by a particular compound was defined by at least a ten-fold greater inhibition of HUVEC primary cell cultures when compared to the H3396 tumor cell line.
Background: Dividing cells build labelled thymidine or BrdU into new DNA.

Data set [2] relates to endothelial cells occurring in MATRIGEL plugs. The data set can be described thus: In vivo […] plug angiogenesis model. Also on record: species or system athymic (nu/nu) Balb/c mice. Conditions: mouse. As for the experimental part:
LX1 human lung tumor fragments that were maintained by serial subcutaneous passage in athymic (nu/nu) Balb/c mice were implanted subcutaneously as small fragments approximately 0.1 mm^3 in size. Tumor volume doubling time for this tumor in these studies was 2.8 days. When tumors reached the size range of 150-200 mm^3, liquid […] was injected subcutaneously on the side contralateral to the tumor. Treatment was initiated 24 hours later at varying doses and schedules. Prior to implanting, […] is prepared by placing solidified […] on ice overnight at 4 C in accordance with the method described by Passiniti et al. (Lab. Invest. 1992 67:519-28). At the liquid phase and while on ice, VEGF and bFGF (Peprotech, Inc. Rocky Hill, NJ) is added to the […] at final respective concentrations of 75 ng/ml and 300 ng/ml. Stock solutions of these growth factors are made fresh at 10 mg/ml in PBS. […] These plugs were then processed for paraffin embedding and sectioned at 5 µm thickness followed by staining with hematoxylin and eosin prior to quantitative analysis. The number of endothelial cells in plugs was quantitated using the IMAGEPRO PLUS software (Media Cybernetics, Inc., Silver Spring, MD) at a magnification of 20x. […]
Angiogenesis is evaluated in these plugs as the number of endothelial cells migrating into plugs from compound treated groups relative to the vehicle treated group. […]

Data set [3] relates to human umbilical vein endothelial cell (HUVEC). The data set can be described thus: HUVEC proliferation (3H-thymidine incorporation). The class given is cell-based. Conditions: second value of two separate experiments, read-out: IC50 in Cells HUVEC.
Method: Primary human umbilical vein endothelial cells (HUVEC) were purchased from CLONETICS Inc. (San Diego, CA) and used at passage 2 to 3. Proliferation was measured using ^3H-thymidine incorporation in cells by pulsing twenty-four hours prior to harvesting cell cultures. […] Cells (2 × 10^3) were plated on collagen IV coated 96 well plates. Twenty-four hours later, compounds were added at varying concentrations. After 48 hours, ^3H-thymidine was added and cells were allowed to incorporate this label over a twenty-four hour period. Cellular extracts were harvested onto glass filters and incorporated radioactivity was determined by counting in a Beta scintillation counter. The IC50, defined as the drug concentration that causes 50% inhibition of ^3H-thymidine incorporation, was extrapolated from the plotted data.
In data set [4] the test system is mammary 16/C murine carcinoma. Kind of data set: Staged subcutaneous mammary 16/C carcinoma in mice, gross log cell kill. The class given is in vivo, C3H mice. The source says:
The final concentrations of each component of the vehicle was as follows: CREMOPHOR 10%; ethanol […]; aqueous 80%.
C3H conventional mice were purchased from Harlan-Sprague Dawley (Indianapolis, IN) and fed mouse chow and water ad libitum.
The metastatic mammary 16/C murine carcinoma was propagated biweekly in C3H mice. Experiments were initiated by subcutaneous insertion by trocar of tumor fragments.
For in vivo tumor testing, the C3H mice were implanted subcutaneously with mammary 16/C tumor fragments. All treatments were initiated on Day 10 post-tumor implant, except for an untreated control group. All groups contained 8 mice. Tumors were measured once or twice weekly and dimensions were converted to weights using the formula Weight (milligrams)= […], where a=length and b=width (in millimeters). The median time for tumors within each group of mice to reach 1 gram was determined and the delays in median time to reach 1 gram tumor target size for treated (T) versus control (C) groups was calculated. These delays in tumor growth (T-C value in days) were further converted to gross log cell kill (LCK) values using the formula T-C/(tumor volume doubling time, TVDT, of the control group) x (3.32). A LCK of greater than or equal to 1 LCK was considered an active result. Cures were assessed at the end of each experiment and defined in the absence of a tumor mass of greater than 35 milligrams. Experiments were terminated more than 10 x TVDT following the completion of all treatments.

In data set [5] the test system is drug-resistant Lewis Lung carcinoma. Conditions: 170 mg/kg every 6 days versus other cyclophosphamide schedules tested (e.g. 135 mg/kg every 4 days); cited from earlier work.
[6] abbreviates: metronomic regime 20 mg/kg orally, q2dx15, cumulative dose 300 mg/kg.

The values below come from patent publication EP1623706A2 (priority 2001, dated 2002).

Where two headings read alike, the source gives them in different places.

From the text for L2987 human lung tumors: L2987 human lung tumors were implanted and allowed to reach 50 to 100 mm^3 before drug administration.

Usually IC50 stands for the point on the concentration scale where inhibition reaches its midpoint. Regarding `COC(=O)O[C@@]12CO[C@@H]1C[C@H](O)[C@@]1(C)C(=O)[C@H](OC(C)=O)C3=C(C)[C@@H](OC(=O)[C@H](O)[C@@H](NC(=O)OC(C)(C)C)C(C)(C)C)C[C@@](O)([C@@H](OC(=O)c4ccccc4)[C@H]21)C3(C)C` [Formula I, 3'-tert-Butyl-3'-N-tert-butyloxycarbonyl-4-deacetyl-3'-dephenyl-3'-N-debenzoyl-4-O-methoxycarbonyl-paclitaxel], the weight loss entry in the data set on L2987 human lung tumors (60 mg/kg orally, standard schedule q2dx5 (MTD), cumulative dose 300 mg/kg) is on record as “weight loss was also observed”; with L2987 human lung tumors (setting [6]), “no weight loss was observed”. In addition, the anti-tumor response entry in the data set with L2987 human lung tumors (60 mg/kg orally, standard schedule q2dx5 (MTD), cumulative dose 300 mg/kg, compared with metronomic regime) is listed as “greater anti-tumor response was observed”. Also, in the data set on L2987 human lung tumors (setting [6]), the tumor growth result is on record as “suppressed tumor growth”. Moreover, the IC50 in data set [1] (H3396, read-out: IC50 in Cells H3396, second value of two separate experiments) is 3 nM. For the same compound, the “doses lower than the maximum tolerated dose at which anti-angiogenic effects are still observed in vivo” value in data set [2] is recorded as “approximately 13 fold”.

Take `CC(=O)O[C@H]1C(=O)[C@@]2(C)[C@H]([C@H](OC(=O)c3ccccc3)[C@]3(O)C[C@H](OC(=O)[C@H](O)[C@@H](NC(=O)c4ccccc4)c4ccccc4)C(C)=C1C3(C)C)[C@]1(OC(C)=O)CO[C@@H]1C[C@@H]2O` [TAXOL, paclitaxel]: the IC50 turned out to be 5 nM in data set [3] and 4 nM in data set [1] (H3396, second value of two separate experiments, read-out: IC50 in Cells H3396). The cures/total in data set [4] (Paclitaxel 20 mg/kg/inj qd 10-14 iv, Paclitaxel 30 qd 32-36 iv, no Formula I, Day 88 post-tumor implant) is given as 1/8; in data set [4] (Paclitaxel 30 mg/kg/inj qd 10-14 iv only, Day 60 post tumor implant), 2/8; in data set [4] (Paclitaxel 30 mg/kg/inj qd 10-14 iv, Paclitaxel 30 qd 32-36 iv, no Formula I, Day 88 post-tumor implant, listed as Paclitaxel), 2/8; in data set [4] (Paclitaxel 30 mg/kg/inj qd 10-14 iv, Paclitaxel 30 qd 32-36 iv, no Formula I, Day 88 post-tumor implant, listed as paclitaxel), 2 of 8; in data set [4] (Paclitaxel 45 mg/kg/inj qd 10-14 iv only, Day 60 post tumor implant), 1/8. The “likely MTD regimen” value in data set [4] (during each of the two courses of treatment (qdx5; 10, 32, iv)) is 30 mg/kg/inj. Also, the MTD regimen in data set [4] (qdx5, iv, beginning on Day 10 post-tumor implant, single course) worked out at 45 mg/kg/injection.

As for `O=P1(N(CCCl)CCCl)NCCCO1` (stereo not shown) [cyclophosphamide], in data set [5], the controlling tumor growth entry is recorded as “more effective”.
